Source: article PMC4320052, “High Level Expression of a Novel Family 3 Neutral β-Xylosidase from Humicola insolens Y1 with High Tolerance to D-Xylose” (PLoS ONE, 2015)

Experiments:
Xyl3A = biological target: T1, Xyl3A (Mycothermus thermophilus, UniProt A0A0C5AKM5); assay: pNPX hydrolysis at […] nm, Dixon plot; assay type: biochemical; conditions: pNPX 0.75 and 1 mM, xylose 5-50 mM, pH 6.0, 60°C; competitive (general statement for β-xylosidases); Methods define Ki as xylose giving 50% inhibition
T1 construct: mature Xyl3A, signal peptide (residues 1-19) removed; precursor 777 residues; pPIC9 alpha-factor fusion, secreted from Pichia pastoris GS115
T1 sequence (A0A0C5AKM5 20-777): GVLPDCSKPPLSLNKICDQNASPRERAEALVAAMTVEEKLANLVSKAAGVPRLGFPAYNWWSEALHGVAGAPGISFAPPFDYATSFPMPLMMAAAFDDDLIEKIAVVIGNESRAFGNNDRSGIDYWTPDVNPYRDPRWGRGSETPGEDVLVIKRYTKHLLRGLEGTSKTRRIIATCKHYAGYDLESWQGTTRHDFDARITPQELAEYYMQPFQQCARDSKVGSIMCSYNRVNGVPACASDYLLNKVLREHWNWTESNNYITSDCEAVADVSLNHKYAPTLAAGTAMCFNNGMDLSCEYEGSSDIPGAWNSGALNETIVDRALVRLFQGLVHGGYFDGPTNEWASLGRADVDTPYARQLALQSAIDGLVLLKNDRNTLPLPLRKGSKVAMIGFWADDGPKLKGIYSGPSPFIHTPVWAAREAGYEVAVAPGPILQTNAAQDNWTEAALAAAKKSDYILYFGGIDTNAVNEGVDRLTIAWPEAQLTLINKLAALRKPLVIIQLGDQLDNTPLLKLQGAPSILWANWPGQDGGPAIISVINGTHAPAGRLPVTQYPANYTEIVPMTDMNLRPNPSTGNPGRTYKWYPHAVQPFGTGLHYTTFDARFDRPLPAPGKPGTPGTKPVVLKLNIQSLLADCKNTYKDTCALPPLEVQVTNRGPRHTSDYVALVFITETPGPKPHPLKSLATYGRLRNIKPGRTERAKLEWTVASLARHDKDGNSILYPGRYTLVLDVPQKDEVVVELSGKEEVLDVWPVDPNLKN

purified protein = substrate: O=[N+]([O-])c1ccc(O[C@@H]2OC[C@@H](O)[C@H](O)[C@H]2O)cc1; assay: purified protein; assay type: biochemical, Mycothermus thermophilus; conditions: pNPX 1-10 mM, 100 mM Na2HPO4-citric acid, pH 6.0, 60°C, 5 min

`OC1OC[C@@H](O)[C@H](O)[C@H]1O` (some centres unmarked) [xylose] showed a Ki (Xyl3A) of 29 mM.

B1: Xyl3A (Mycothermus thermophilus) (protein)
chain: T1 sequence (A0A0C5AKM5 20-777)
notes: mature Xyl3A, signal peptide (residues 1-19) removed; precursor 777 residues; pPIC9 alpha-factor fusion, secreted from Pichia pastoris GS115
With B1 the Km (purified protein) was 2.51 mM.
